One assay concerns the target rat TRPM8 (Rattus norvegicus, UniProt Q8R455). Kind of assay: Fura-2 ratiometric calcium imaging, agonist dose-response. It is filed as cell-based.
A further assay addresses mouse TRPM8 (mTRPM8) (Mus musculus, UniProt Q8R4D5). Description: whole-cell patch clamp, shift of voltage for half-maximal activation. The class given is cell-based. Conditions: agonist; 30 µM rapamycin, calcium-free, pH 7.4, 33 °C. On the technique in general: Patch clamp records ionic current or voltage across a cell membrane.

These results are taken from publication doi:10.1101/2024.01.24.577111v1 (biorxiv, 2024).

Sequence of rat TRPM8 (Q8R455 whole entry): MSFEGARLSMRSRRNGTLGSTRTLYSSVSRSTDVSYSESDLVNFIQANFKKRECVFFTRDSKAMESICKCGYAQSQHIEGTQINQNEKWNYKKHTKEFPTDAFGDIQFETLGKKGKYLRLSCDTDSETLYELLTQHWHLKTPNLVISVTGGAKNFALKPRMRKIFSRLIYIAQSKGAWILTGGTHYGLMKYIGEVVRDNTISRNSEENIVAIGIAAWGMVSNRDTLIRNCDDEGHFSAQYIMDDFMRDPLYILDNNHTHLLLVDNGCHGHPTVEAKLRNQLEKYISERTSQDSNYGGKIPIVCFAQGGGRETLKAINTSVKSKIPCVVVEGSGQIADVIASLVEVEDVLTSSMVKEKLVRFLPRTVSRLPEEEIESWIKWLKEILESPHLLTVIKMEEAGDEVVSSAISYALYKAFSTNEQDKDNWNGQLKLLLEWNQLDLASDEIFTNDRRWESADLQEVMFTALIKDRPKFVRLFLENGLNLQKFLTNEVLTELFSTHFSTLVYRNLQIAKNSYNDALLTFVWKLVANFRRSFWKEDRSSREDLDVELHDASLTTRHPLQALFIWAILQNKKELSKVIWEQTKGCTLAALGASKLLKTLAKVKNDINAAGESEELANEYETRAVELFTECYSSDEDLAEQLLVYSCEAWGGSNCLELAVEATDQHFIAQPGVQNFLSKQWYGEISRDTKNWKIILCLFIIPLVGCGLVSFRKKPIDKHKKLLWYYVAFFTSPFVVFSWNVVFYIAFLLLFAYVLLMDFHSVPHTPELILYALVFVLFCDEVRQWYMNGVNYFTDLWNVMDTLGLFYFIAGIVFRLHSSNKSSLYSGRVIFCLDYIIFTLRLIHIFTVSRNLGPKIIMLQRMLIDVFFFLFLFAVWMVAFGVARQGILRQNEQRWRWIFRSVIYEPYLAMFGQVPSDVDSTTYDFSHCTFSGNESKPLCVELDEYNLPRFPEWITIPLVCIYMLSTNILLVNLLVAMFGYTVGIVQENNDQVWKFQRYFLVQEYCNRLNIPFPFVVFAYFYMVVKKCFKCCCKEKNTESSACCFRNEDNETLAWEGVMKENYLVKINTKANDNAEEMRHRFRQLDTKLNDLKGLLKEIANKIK
Sequence of mouse TRPM8 (mTRPM8) (Q8R4D5 whole entry): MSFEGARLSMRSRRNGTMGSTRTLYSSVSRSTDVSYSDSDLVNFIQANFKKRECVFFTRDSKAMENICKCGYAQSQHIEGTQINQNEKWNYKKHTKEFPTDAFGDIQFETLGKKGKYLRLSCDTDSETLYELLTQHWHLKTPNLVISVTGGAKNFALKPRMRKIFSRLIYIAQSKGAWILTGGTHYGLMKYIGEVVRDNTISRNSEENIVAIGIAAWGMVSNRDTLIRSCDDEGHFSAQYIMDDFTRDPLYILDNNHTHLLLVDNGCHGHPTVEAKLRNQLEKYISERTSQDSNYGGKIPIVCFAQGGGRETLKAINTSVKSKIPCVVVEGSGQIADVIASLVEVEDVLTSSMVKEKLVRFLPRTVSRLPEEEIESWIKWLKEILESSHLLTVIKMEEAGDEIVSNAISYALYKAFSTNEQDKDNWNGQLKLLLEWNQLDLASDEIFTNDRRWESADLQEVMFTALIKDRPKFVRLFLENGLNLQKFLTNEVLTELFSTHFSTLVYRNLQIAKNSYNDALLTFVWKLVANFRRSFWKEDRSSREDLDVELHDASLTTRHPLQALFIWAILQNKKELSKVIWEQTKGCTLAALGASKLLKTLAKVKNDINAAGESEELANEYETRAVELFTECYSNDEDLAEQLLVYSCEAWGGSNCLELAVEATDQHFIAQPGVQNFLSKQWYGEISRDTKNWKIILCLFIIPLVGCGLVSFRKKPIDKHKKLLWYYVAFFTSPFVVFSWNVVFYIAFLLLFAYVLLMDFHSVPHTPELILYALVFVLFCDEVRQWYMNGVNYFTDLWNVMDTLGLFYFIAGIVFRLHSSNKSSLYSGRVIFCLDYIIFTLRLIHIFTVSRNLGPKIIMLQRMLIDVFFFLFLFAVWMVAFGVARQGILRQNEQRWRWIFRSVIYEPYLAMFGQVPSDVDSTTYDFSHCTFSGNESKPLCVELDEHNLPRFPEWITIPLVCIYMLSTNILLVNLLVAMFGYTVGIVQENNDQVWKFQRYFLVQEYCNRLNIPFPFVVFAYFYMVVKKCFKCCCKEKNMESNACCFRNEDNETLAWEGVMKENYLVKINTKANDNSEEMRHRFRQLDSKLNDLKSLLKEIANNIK

What is called EC50 is the concentration at which the effect is half-maximal. With `CO[C@H]1C[C@@H]2CC[C@@H](C)[C@@](O)(O2)C(=O)C(=O)N2CCCC[C@H]2C(=O)O[C@H]([C@H](C)C[C@@H]2CC[C@@H](O)[C@H](OC)C2)CC(=O)[C@H](C)/C=C(\C)[C@@H](O)[C@@H](OC)C(=O)[C@H](C)C[C@H](C)/C=C/C=C/C=C/1C` [rapamycin], the EC50 on rat TRPM8 came out at 6.5 ± 1.5 µM. Further, the ΔV1/2 on mouse TRPM8 (mTRPM8) is −102.1 ± 5.2 mV.
